Measurements taken from patent publication US12077503B2, “Substituted cyclic amides and their use as herbicides” (FMC CORPORATION, priority 2015, dated 2024).

Key:
Format in all cases: in vivo
[1] = test system: Galium (catchweed bedstraw, Galium aparine); assay: Test A postemergence; details: Galium, post-emergence, 240 h, postemergence; for pest or weed control at 125 g/ha: 125 g ai/ha, visual injury vs untreated controls after approx. 10 d, 0 = no effect, 100 = complete control, read-out: Galium plant response rating (0 to 100 scale); for pest or weed control at 500 g/ha: 500 g ai/ha, 0 to 100 scale, 0 is no effect, 100 is complete control, read-out: Galium plant response rating
Outline: (§1)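 Seeds sprayed preemergence with a directed soil spray, or plants at 2 to 10 cm height and one- to two-leaf stage sprayed postemergence, with test chemicals in a non-phytotoxic solvent mixture containing surfactant, in loam soil–sand blend. Injury rated visually against untreated controls after about 10 d in greenhouse, 0 (no effect) to 100 (complete control).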

Kochia (Kochia scoparia) = assay: Test A postemergence; details: Bassia scoparia, post-emergence, 240 h, postemergence; for pest or weed control at 125 g/ha: 125 g ai/ha, visual injury vs untreated controls after approx. 10 d, 0 = no effect, 100 = complete control, read-out: Kochia plant response rating (0 to 100 scale); for pest or weed control at 500 g/ha: 500 g ai/ha, 0 to 100 scale, 0 is no effect, 100 is complete control, read-out: Kochia plant response rating
Outline: as §1

[2] = test system: barnyardgrass (Echinochloa crus-galli); assay: Test A postemergence; details: Echinochloa crus-galli, post-emergence, 240 h, postemergence; for pest or weed control at 125 g/ha: 125 g ai/ha, visual injury vs untreated controls after approx. 10 d, 0 = no effect, 100 = complete control, read-out: Barnyardgrass plant response rating (0 to 100 scale); for pest or weed control at 500 g/ha: 500 g ai/ha, 0 to 100 scale, 0 is no effect, 100 is complete control, read-out: Barnyardgrass plant response rating
Outline: as §1

[3] = test system: blackgrass (Alopecurus myosuroides); assay: Test A postemergence; details: Alopecurus myosuroides, post-emergence, 240 h, postemergence; for pest or weed control at 125 g/ha: 125 g ai/ha, visual injury vs untreated controls after approx. 10 d, 0 = no effect, 100 = complete control, read-out: Blackgrass plant response rating (0 to 100 scale); for pest or weed control at 500 g/ha: 500 g ai/ha, 0 to 100 scale, 0 is no effect, 100 is complete control, read-out: Blackgrass plant response rating
Outline: as §1

corn (Zea mays) = assay: Test A postemergence; details: Zea mays, post-emergence, 240 h, postemergence; for plant injury at 125 g/ha: 125 g ai/ha, visual injury vs untreated controls after approx. 10 d, 0 = no effect, 100 = complete control, read-out: Corn plant response rating (0 to 100 scale); for plant injury at 500 g/ha: 500 g ai/ha, 0 to 100 scale, 0 is no effect, 100 is complete control, read-out: Corn plant response rating
Outline: as §1

[4] = test system: giant foxtail (Setaria faberii); assay: Test A postemergence; details: Setaria faberi, post-emergence, 240 h, postemergence; for pest or weed control at 125 g/ha: 125 g ai/ha, visual injury vs untreated controls after approx. 10 d, 0 = no effect, 100 = complete control, read-out: Foxtail, Giant plant response rating (0 to 100 scale); for pest or weed control at 500 g/ha: 500 g ai/ha, 0 to 100 scale, 0 is no effect, 100 is complete control, read-out: Foxtail, Giant plant response rating
Outline: as §1

[5] = test system: pigweed (Amaranthus retroflexus); assay: Test A postemergence; details: Amaranthus retroflexus, post-emergence, 240 h, postemergence; for pest or weed control at 125 g/ha: 125 g ai/ha, visual injury vs untreated controls after approx. 10 d, 0 = no effect, 100 = complete control, read-out: Pigweed plant response rating (0 to 100 scale); for pest or weed control at 500 g/ha: 500 g ai/ha, 0 to 100 scale, 0 is no effect, 100 is complete control, read-out: Pigweed plant response rating
Outline: as §1

[6] = test system: ragweed (common ragweed, Ambrosia elatior); assay: Test A postemergence; details: Ambrosia artemisiifolia, post-emergence, 240 h, postemergence; for pest or weed control at 125 g/ha: 125 g ai/ha, visual injury vs untreated controls after approx. 10 d, 0 = no effect, 100 = complete control, read-out: Ragweed plant response rating (0 to 100 scale); for pest or weed control at 500 g/ha: 500 g ai/ha, 0 to 100 scale, 0 is no effect, 100 is complete control, read-out: Ragweed plant response rating
Outline: as §1

[7] = test system: ryegrass, Italian (Italian ryegrass, Lolium multiflorum); assay: Test A postemergence; details: Lolium multiflorum, post-emergence, 240 h, postemergence; for pest or weed control at 125 g/ha: 125 g ai/ha, visual injury vs untreated controls after approx. 10 d, 0 = no effect, 100 = complete control, read-out: Ryegrass, Italian plant response rating (0 to 100 scale); for pest or weed control at 500 g/ha: 500 g ai/ha, 0 to 100 scale, 0 is no effect, 100 is complete control, read-out: Ryegrass, Italian plant response rating
Outline: as §1

[8] = test system: wheat (Triticum aestivum); assay: Test A postemergence; details: Triticum aestivum, post-emergence, 240 h, postemergence; for plant injury at 125 g/ha: 125 g ai/ha, visual injury vs untreated controls after approx. 10 d, 0 = no effect, 100 = complete control, read-out: Wheat plant response rating (0 to 100 scale)
Outline: as §1

[9] = test system: barnyardgrass (Echinochloa crus-galli); assay: Test B flooded paddy test; details: Echinochloa crus-galli, 250 g ai/ha, Flood; 0 to 100 scale where 0 is no effect and 100 is complete control; read-out: Barnyardgrass plant response rating
Outline: (§2)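 2-leaf plants; pots flooded 3 cm over soil; cpd added to paddy water; depth held; greenhouse 13–15 d; visual rating vs controls, 0 = no effect, 100 = complete control.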

[10] = test system: ducksalad (Heteranthera limosa); assay: Test B flooded paddy test; details: Heteranthera limosa, 250 g ai/ha, Flood; 0 to 100 scale where 0 is no effect and 100 is complete control; read-out: Ducksalad plant response rating
Outline: as §2

rice (Oryra sativa) = assay: Test B flooded paddy test; details: Oryza sativa, 250 g ai/ha, Flood; 0 to 100 scale where 0 is no effect and 100 is complete control; read-out: Rice plant response rating
Outline: as §2

[11] = test system: sedge, umbrella (small-flower umbrella sedge, Cyperus difformis); assay: Test B flooded paddy test; details: Cyperus difformis, 250 g ai/ha, Flood; 0 to 100 scale where 0 is no effect and 100 is complete control; read-out: Sedge, Umbrella plant response rating
Outline: as §2

CN1C[C@H](c2cc(F)cc(C(F)(F)F)c2)[C@@H](C(=O)Nc2cccc(F)c2F)C1=O [Compound 1214]
pest or weed control at 125 g/ha [1]: 60% | pest or weed control at 500 g/ha [1]: 60% | pest or weed control at 125 g/ha (Kochia (Kochia scoparia)): 60% | pest or weed control at 500 g/ha (Kochia (Kochia scoparia)): 80% | pest or weed control at 125 g/ha [2]: 90% | pest or weed control at 500 g/ha [2]: 90% | pest or weed control at 125 g/ha [3]: 80% | pest or weed control at 500 g/ha [3]: 80% | plant injury at 125 g/ha (corn (Zea mays)): 80% | plant injury at 500 g/ha (corn (Zea mays)): 90% | pest or weed control at 125 g/ha [4]: 90% | pest or weed control at 500 g/ha [4]: 90% | pest or weed control at 125 g/ha [5]: 30% | pest or weed control at 500 g/ha [5]: 60% | pest or weed control at 125 g/ha [6]: 0% | pest or weed control at 500 g/ha [6]: 30% | pest or weed control at 125 g/ha [7]: 60% | pest or weed control at 500 g/ha [7]: 80% | plant injury at 125 g/ha [8]: 70% | plant injury at 500 g/ha ([8]; 500 g ai/ha, 0 to 100 scale, 0 is no effect, 100 is complete control, read-out: Wheat plant response rating): 80% | pest or weed control at 250 g/ha [9]: 70% | pest or weed control at 250 g/ha [10]: 100% | pest or weed control at 250 g/ha (rice (Oryra sativa)): 15% | pest or weed control at 250 g/ha [11]: 60%

CN1C[C@H](c2ccc(F)c(Br)c2)[C@@H](C(=O)Nc2cccc(F)c2F)C1=O [Compound 1234]
pest or weed control at 125 g/ha [1]: 50% | pest or weed control at 500 g/ha [1]: 60% | pest or weed control at 125 g/ha (Kochia (Kochia scoparia)): 40% | pest or weed control at 500 g/ha (Kochia (Kochia scoparia)): 50% | pest or weed control at 125 g/ha [2]: 90% | pest or weed control at 500 g/ha [2]: 90% | pest or weed control at 125 g/ha [3]: 30% | pest or weed control at 500 g/ha [3]: 60% | plant injury at 125 g/ha (corn (Zea mays)): 80% | plant injury at 500 g/ha (corn (Zea mays)): 100% | pest or weed control at 125 g/ha [4]: 80% | pest or weed control at 500 g/ha [4]: 90% | pest or weed control at 125 g/ha [5]: 20% | pest or weed control at 500 g/ha [5]: 50% | pest or weed control at 125 g/ha [6]: 30% | pest or weed control at 500 g/ha [6]: 30% | pest or weed control at 125 g/ha [7]: 40% | pest or weed control at 500 g/ha [7]: 70% | plant injury at 125 g/ha [8]: 40% | pest or weed control at 250 g/ha [9]: 90% | pest or weed control at 250 g/ha [10]: 100% | pest or weed control at 250 g/ha (rice (Oryra sativa)): 75% | pest or weed control at 250 g/ha [11]: 0%

CN1C[C@H](c2ccc(C(F)(F)F)cc2)[C@@H](C(=O)Nc2cccc(Cl)c2F)C1=O [Compound 1238]
pest or weed control at 125 g/ha [1]: 20% | pest or weed control at 500 g/ha [1]: 50% | pest or weed control at 125 g/ha (Kochia (Kochia scoparia)): 30% | pest or weed control at 500 g/ha (Kochia (Kochia scoparia)): 50% | pest or weed control at 125 g/ha [2]: 50% | pest or weed control at 500 g/ha [2]: 80% | pest or weed control at 125 g/ha [3]: 30% | pest or weed control at 500 g/ha [3]: 50% | plant injury at 125 g/ha (corn (Zea mays)): 20% | plant injury at 500 g/ha (corn (Zea mays)): 40% | pest or weed control at 125 g/ha [4]: 60% | pest or weed control at 500 g/ha [4]: 80% | pest or weed control at 125 g/ha [5]: 0% | pest or weed control at 500 g/ha [5]: 30% | pest or weed control at 125 g/ha [6]: 0% | pest or weed control at 500 g/ha [6]: 20% | pest or weed control at 125 g/ha [7]: 20% | pest or weed control at 500 g/ha [7]: 60% | plant injury at 125 g/ha [8]: 0% | pest or weed control at 250 g/ha [9]: 0% | pest or weed control at 250 g/ha [10]: 0% | pest or weed control at 250 g/ha (rice (Oryra sativa)): 0% | pest or weed control at 250 g/ha [11]: 0%

O=C1NC[C@H](c2ccc(C(F)(F)F)cc2)C1C(=O)Nc1ccccc1CO (some centres unmarked) [Compound 1242]
pest or weed control at 125 g/ha [1]: 0% | pest or weed control at 500 g/ha [1]: 20% | pest or weed control at 125 g/ha (Kochia (Kochia scoparia)): 0% | pest or weed control at 500 g/ha (Kochia (Kochia scoparia)): 0% | pest or weed control at 125 g/ha [2]: 20% | pest or weed control at 500 g/ha [2]: 40% | pest or weed control at 125 g/ha [3]: 0% | pest or weed control at 500 g/ha [3]: 0% | plant injury at 125 g/ha (corn (Zea mays)): 0% | plant injury at 500 g/ha (corn (Zea mays)): 0% | pest or weed control at 125 g/ha [4]: 20% | pest or weed control at 500 g/ha [4]: 50% | pest or weed control at 125 g/ha [5]: 0% | pest or weed control at 500 g/ha [5]: 0% | pest or weed control at 125 g/ha [6]: 0% | pest or weed control at 500 g/ha [6]: 0% | pest or weed control at 125 g/ha [7]: 0% | pest or weed control at 500 g/ha [7]: 0% | plant injury at 125 g/ha [8]: 0% | pest or weed control at 250 g/ha [9]: 0% | pest or weed control at 250 g/ha [10]: 75% | pest or weed control at 250 g/ha (rice (Oryra sativa)): 0% | pest or weed control at 250 g/ha [11]: 0%

Cc1cc([C@H]2CNC(=O)[C@@H]2C(=O)Nc2ccccc2C(F)(F)F)ccc1Cl [Compound 1245]
pest or weed control at 125 g/ha [1]: 30% | pest or weed control at 500 g/ha [1]: 50% | pest or weed control at 125 g/ha (Kochia (Kochia scoparia)): 0% | pest or weed control at 500 g/ha (Kochia (Kochia scoparia)): 40% | pest or weed control at 125 g/ha [2]: 40% | pest or weed control at 500 g/ha [2]: 90% | pest or weed control at 125 g/ha [3]: 30% | pest or weed control at 500 g/ha [3]: 60% | plant injury at 125 g/ha (corn (Zea mays)): 0% | plant injury at 500 g/ha (corn (Zea mays)): 0% | pest or weed control at 125 g/ha [4]: 20% | pest or weed control at 500 g/ha [4]: 60% | pest or weed control at 125 g/ha [5]: 0% | pest or weed control at 500 g/ha [5]: 0% | pest or weed control at 125 g/ha [6]: 0% | pest or weed control at 500 g/ha [6]: 50% | pest or weed control at 125 g/ha [7]: 0% | pest or weed control at 500 g/ha [7]: 0% | plant injury at 125 g/ha [8]: 0% | pest or weed control at 250 g/ha [9]: 0% | pest or weed control at 250 g/ha [10]: 90% | pest or weed control at 250 g/ha (rice (Oryra sativa)): 0% | pest or weed control at 250 g/ha [11]: 0%
